SMILES strings stand for the structures. Structures can show the parent of a compound that is named as a salt. Where two headings read alike, the source gives them in different places.

The record followed here is patent US6566355B1 (Hoffmann-La Roche Inc., priority 1991, dated 2003).

Assay [1] concerns the target T1, β-lactamase (Citrobacter freundii, UniProt P05193).
T1 construct: Various β-lactamases can be isolated from penicillin- or cephalosporin-resistant bacterial strains such as; endogenous in cells; host or cells: Citrobacter freundii 1203 (enzyme purified from the crude cell extract, after ampicillin induction when necessary)
As to the kind of experiment: biochemical. On the procedure:
A. Isolation of the β-lactamases
Various β-lactamases can be isolated from penicillin- or cephalosporin-resistant bacterial strains such as Klebsiella pneumoniae NCTC 418, Proteus vulgaris 1028, Bacillus licheniformis 749/C, Escherichia coli SN01 and Citrobacter freundii 1203. For this purpose, the corresponding strains are cultivated in Tryptic Soy Broth (Difco) and harvested by centrifugation in the last logarithmic growth phase (when necessary 50-100 mg/l of ampicillin are added to the medium towards the end of the log-phase in order to induce the β-lactamase). The thus-obtained bacterial mass is treated with 20 mM Tris-HCl buffer (pH 7.0); the cells are broken open with a French press while cooling. The mixture is centrifuged (20,000 r/min.) for 20-30 minutes and a clear crude extract is obtained.
B. Determination of the β-lactamase activity
The determination of the activity of the isolated β-lactamases can be carried out according to the method of O'Callaghan, C. H. et al. [Antimicr. Ag. Chemother., 1, 283-288 (1972)] using the chromogenic cephalosporin nitrocefin (87/312 from Glaxo). The requisite test batch contains per ml of water: 50 mM phosphate buffer (pH 7.0), 0.1 mM nitrocefin and sufficient enzyme (β-lactamase) to achieve a ΔA/min. of about 0.1. The cleavage of the substrate, which is accompanied by a change in colour, is effected at 37° C. and is followed quantitatively at 482 nm using a spectral photometer.
C. Determination of the β-lactamase-inhibiting activity of the compounds of general formula I
The above-described cleavage of the chromogenic substrate by β-lactamases (test B.) can be inhibited by the addition of compounds of general formula I (inhibitors). […] As a measurement for the affinity of the particular tested inhibitor to the β-lactamase, which is a measurement of the strength of the inhibitor, there serves that concentration which inhibits by 50% (IC 50 in nM) the cleavage of the substrate (nitrocefin) effected under the above test conditions (test B) in the absence of an inhibitor. […] The determination of the IC50 was effected by means of a graph.
(Test organism: Citrobacter freundii)

In assay [2] the test system is Citrobacter freundii. Nature of the assay: MIC in vitro of a 1:4 combination of ceftriaxone with a compound of formula I (test D). The class given is cell-based. The settings on record: 1:4 combination of ceftriaxone with the compound. As for the experimental part: D. Determination of the β-lactamase-inhibiting activity by combination of a compound of general formula I with ceftriaxone
The minimum inhibitory concentration in vitro (MIC in μg/ml) of a 1:4 combination of ceftriaxone with a compound of formula I against Citrobacter freundii is measured and compiled in Table 2 hereinafter.

The mark [3] stands for this setting: isolated β-lactamase of Citrobacter freundii, substrate nitrocefin 0.1 mM, 15 minutes pre-incubation with inhibitor, 37° C., pH 7.0, read-out: IC 50 nM.
[4] abbreviates: IC 50 nM, isolated β-lactamase of Citrobacter freundii, substrate nitrocefin 0.1 mM, 15 minutes pre-incubation with inhibitor, 37° C., pH 7.0.

T1 sequence (P05193 21-381): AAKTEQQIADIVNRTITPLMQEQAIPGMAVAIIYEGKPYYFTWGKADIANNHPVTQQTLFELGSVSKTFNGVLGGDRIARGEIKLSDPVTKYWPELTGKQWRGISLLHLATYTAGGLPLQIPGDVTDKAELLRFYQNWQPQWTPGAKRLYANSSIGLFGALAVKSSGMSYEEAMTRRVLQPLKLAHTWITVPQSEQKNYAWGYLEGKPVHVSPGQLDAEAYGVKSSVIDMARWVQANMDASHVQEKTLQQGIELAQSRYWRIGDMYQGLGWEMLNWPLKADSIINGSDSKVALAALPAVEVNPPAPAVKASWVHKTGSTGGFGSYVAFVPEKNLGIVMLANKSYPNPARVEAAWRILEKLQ

For the compound `N[C@@H](C(=O)N1CC[C@@H]2[C@H]1C(=O)N2S(=O)(=O)O)c1ccc(O)cc1` [6(d), (1S,5R)-2-[D-2-(p-Hydroxyphenyl)glycyl]-7-oxo-2,6-diazabicyclo[3.2.0]-heptane-6-sulphonic acid], in assay [1], the IC50 is 500 nM. Also, in assay [2], the minimum inhibitory concentration (MIC) came out at 2 µg/mL.

As for `CCN(CC)CC.O=C(/C=C/c1c[nH]c2ccccc12)N1CC[C@@H]2[C@H]1C(=O)N2S(=O)(=O)O` [6(f), (1S,5R)-2-[(E)-3-(3-Indolyl)acryloyl]-7-oxo-2,6-diazabicyclo[3.2.0]heptane-6-sulphonic acid triethylamine salt (1:1)], in assay [1] (setting [3]), the IC50 worked out at 11 nM. The “MIC” value in assay [2] worked out at 4 µg/mL.

Regarding `N[C@@H](Cc1c[nH]c2ccccc12)C(=O)N1CC[C@@H]2[C@H]1C(=O)N2S(=O)(=O)O` [6(h), (1S,5R)-7-Oxo-2-L-tryptophanyl-2,6-diazabicyclo[3.2.0]heptane-6-sulphonic acid], the IC50 in assay [1] was determined as 6 nM. Besides, in assay [2], the minimal inhibitory concentration (MIC) amounted to 1 µg/mL.

For the compound `O=C(Cc1cccnc1)N1CC[C@@H]2[C@H]1C(=O)N2S(=O)(=O)[O-].[Na+]` [6(i), (1S,5R)-7-Oxo-2-(3-pyridylacetyl)-2,6-diazabicyclo[3.2.0]-heptane-6-sulphonic acid sodium salt], in assay [1] (setting [4]), the IC50 is 700 nM. Further, the “MIC” value in assay [2] is 4 µg/mL.

In the case of `N[C@@H](C(=O)N1CC[C@@H]2[C@H]1C(=O)N2S(=O)(=O)O)c1cccc(O)c1` [6(p), (1S,5R)-2-[R-2-(m-Hydroxyphenyl)glycyl]-7-oxo-2,6-diazabicyclo[3.2.0]heptane-6-sulphonic acid], in assay [1], the IC50 came to 56 nM. Moreover, in assay [2], the “MIC” value was determined as 2 µg/mL.

Regarding `O=C(/C=C/c1ccc(O)c(O)c1)N1CC[C@@H]2[C@H]1C(=O)N2S(=O)(=O)O` [6(u), (1S,5R)-(E)-2-[3-(3,4Dihydroxy)phenyl)acryloyl)]-7-oxo-2,6-diazabicyclo[3.2.0]heptane-6-sulfonic acid sodium salt], the IC50 in assay [1] amounted to 40 nM. Further, the “MIC” value in assay [2] came to 2 µg/mL.

Compound `O=C(CNc1ccc(O)cc1)N1CC[C@@H]2[C@H]1C(=O)N2S(=O)(=O)[O-].[Na+]` [6(v), (1S,5R)-2-(4-Hydroxy-phenylaminoacetyl)-7-oxo-2,6-diazabicyclo[3.2.0]heptane-6-sulfonic acid sodium salt] showed an IC50 in assay [1] (setting [4]) of 3.5 nM. Besides, the minimal inhibitory concentration (MIC) in assay [2] is 8 µg/mL.

Turning to `O=C(/C=C/c1cccs1)N1CC[C@@H]2[C@H]1C(=O)N2S(=O)(=O)O` [8(a), (1S,5R)-2-[(E)-3-(2-Thienyl)acryloyl]-7-oxo-2,6-diaza-bicyclo[3.2.0]heptane-6-sulphonic acid], the IC50 in assay [1] stood at 75 nM. In addition, the “MIC” value in assay [2] amounted to 4 µg/mL.

In assay [1] (setting [4]), `O=C(Cn1cnnn1)N1CC[C@@H]2[C@H]1C(=O)N2S(=O)(=O)[O-].[Na+]` [8(b), (1S,5R)-7-Oxo-2-(1H-tetrazol-1-ylacetyl)-2,6-diazabicyclo[3.2.0]heptane-6-sulphonic acid sodium salt] had an IC50 of 500 nM. The minimal inhibitory concentration (MIC) in assay [2] was 1 µg/mL.

For the compound `O=C(/C=C/c1c[nH]cn1)N1CC[C@@H]2[C@H]1C(=O)N2S(=O)(=O)[O-].[Na+]` [8(d), (1S,5R)-2-[(E)-3-(4-Imidazolyl)acryloyl]-7-oxo-2,6-diazabicyclo[3.2.0]heptane-6-sulphonic acid sodium salt], the IC50 in assay [1] (setting [4]) turned out to be 34 nM. Further, the “MIC” value in assay [2] is 0.5 µg/mL.

For `O=C(CCc1ccccc1)N1CC[C@@H]2[C@H]1C(=O)N2S(=O)(=O)[O-].[Na+]` [11(b), (1S,5R)-7-Oxo-2-(3-phenyl-propionyl)-2,6-diazabicyclo[3.2.0]heptane-6-sulphonic acid sodium salt], in assay [1] (setting [4]), the IC50 amounted to 573 nM. Moreover, in assay [2], the “MIC” value was found to be 16 µg/mL.

In assay [1] (setting [4]), `O=C(/C=C/c1ccc(OS(=O)(=O)[O-])c(OS(=O)(=O)[O-])c1)N1CC[C@@H]2[C@H]1C(=O)N2S(=O)(=O)[O-].[Na+].[Na+].[Na+]` [11(c), (1S,5R)-2-[(E)-3,4-Bis(sulphoxy)cinnamoyl]-7-oxo-2,6-diazabicyclo[3.2.0]heptane-6-sulphonic acid sodium salt] returned an IC50 of 1 nM. The “MIC” value in assay [2] turned out to be 16 µg/mL.

The compound `O=C1[C@@H]2[C@@H](CCN2S(=O)(=O)Cc2ccccc2)N1S(=O)(=O)[O-].[Na+]` [11(d), (1S,5R)-2-(Benzylsulphonyl)-7-oxo-2,6-diazabicyclo [3.2.0]heptane-6-sulphonic acid sodium salt] came in with an IC50 in assay [1] (setting [4]) of 142 nM. In addition, the “MIC” value in assay [2] came out at 4 µg/mL.

Consider `Nc1ccc(/C=C/C(=O)N2CC[C@@H]3[C@H]2C(=O)N3S(=O)(=O)O)cc1` [12(a), (1S,5R)-2-[(E)-p-Aminocinnamoyl]-7-oxo-2,6-diazabicyclo[3.2.0]heptane-6-sulphonic acid], for which the IC50 in assay [1] was 105 nM. Also, the minimal inhibitory concentration (MIC) in assay [2] was determined as 4 µg/mL.

Regarding `O=C(CSc1nc[nH]n1)N1CC[C@@H]2[C@H]1C(=O)N2S(=O)(=O)O` [12(b), (1S,5R)-7-Oxo-2-(1,2,4-triazol-3-yl-thioacetyl)-2,6-diazabicyclo[3.2.0]heptan-6-sulphonic acid], in assay [1] (setting [3]), the IC50 amounted to 115 nM. Further, in assay [2], the “MIC” value came to 2 µg/mL.

In the case of `COc1cc(CNC(=O)N2CC[C@@H]3[C@H]2C(=O)N3S(=O)(=O)[O-])on1.[Na+]` [17(aa), (1S,5R)-2-[3-Methoxy-isoxazol-5-ylmethylcarbamoyl]-7-oxo-2,6-diazabicyclo[3.2.0]heptane-6-sulfonic acid sodium salt], the IC50 in assay [1] (setting [4]) was 75 nM. In assay [2], the minimum inhibitory concentration (MIC) was determined as 0.5 µg/mL.

On to `O=C(NCc1ccc(O)cc1)N1CC[C@@H]2[C@H]1C(=O)N2S(=O)(=O)[O-].[Na+]` [17(ab), (1S,5R)-2-[4-Hydroxy-benzylcarbamoyl]-7-oxo-2,6-diazabicyclo[3.2.0]heptane-6-sulfonic acid sodium salt], for which the IC50 in assay [1] (setting [4]) turned out to be 194 nM. The “MIC” value in assay [2] was 1 µg/mL.

In turn, `O=C(NC1CCCC1)N1CC[C@@H]2[C@H]1C(=O)N2S(=O)(=O)[O-].[Na+]` [17(ac), (1S,5R)-2-Cyclopentylcarbamoyl-7-oxo-2,6-diazabicyclo[3.2.0]heptane-6-sulfonic acid sodium salt] displayed an IC50 in assay [1] (setting [4]) of 70 nM. In assay [2], the “MIC” value is 1 µg/mL.

`O=C1OCCN1NC(=O)N1CC[C@@H]2[C@H]1C(=O)N2S(=O)(=O)[O-].[Na+]` [17(ad), (1S,5R)-7-Oxo-2-[2-oxo-oxazolidin-3-ylcarbamoyl]-2,6-diazabicyclo[3.2.0]heptane-6-sulfonic acid sodium salt] yielded an IC50 in assay [1] (setting [4]) of 75 nM. Also, the “MIC” value in assay [2] came out at 2 µg/mL.

In assay [1] (setting [4]), `Nc1nc(CNC(=O)N2CC[C@@H]3[C@H]2C(=O)N3S(=O)(=O)[O-])cs1.[Na+]` [17(ae), (1S,5R)-2-[2-Amino-thiazol-4-ylmethylcarbamoyl]-7-oxo-2,6-diazabicyclo[3.2.0]heptane-6-sulfonic acid sodium salt] returned an IC50 of 200 nM. In assay [2], the “MIC” value was 1 µg/mL.

Regarding `O=C(NCc1nc(C2CC2)no1)N1CC[C@@H]2[C@H]1C(=O)N2S(=O)(=O)[O-].[Na+]` [17(af), (1S,5R)-2-(3-Cyclopropyl-1,2,4-oxadiazol-5-ylmethylcarbamoyl)-7-oxo-2,6-diazabicyclo[3.2.0]heptane-6-sulfonic acid sodium salt], the IC50 in assay [1] (setting [4]) was found to be 107 nM. The “MIC” value in assay [2] stood at 1 µg/mL.

For the compound `O=C1C[C@H](NC(=O)N2CC[C@@H]3[C@H]2C(=O)N3S(=O)(=O)[O-])C(=O)N1.[Na+]` [17(ag), (1S,5R)-7-Oxo-2-[(S)-2,5-dioxo-pyrrolidin-3-ylcarbamoyl]-2,6-diazabicyclo[3.2.0]heptane-6-sulfonic acid sodium salt], the IC50 in assay [1] (setting [4]) amounted to 337 nM. Besides, the “MIC” value in assay [2] worked out at 1 µg/mL.

Consider `O=C(NCCc1ccccn1)N1CC[C@@H]2[C@H]1C(=O)N2S(=O)(=O)[O-].[Na+]` [17(b), (1S,5R)-7-Oxo-2-[2-(pyridin-2-yl)ethylcarbamoyl]-2,6-diazabicyclo[3.2.0]heptane-6-sulphonic acid sodium salt], for which, in assay [1] (setting [4]), the IC50 worked out at 285 nM. In addition, the minimal inhibitory concentration (MIC) in assay [2] stood at 2 µg/mL.

As for `O=C(NCc1ccccn1)N1CC[C@@H]2[C@H]1C(=O)N2S(=O)(=O)[O-].[Na+]` [17(c), (1S,5R)-7-Oxo-2-[(2-pyridylmethyl)carbamoyl]-2,6-diazabicyclo[3.2.0]heptane-6-sulphonic acid sodium salt], the IC50 in assay [1] (setting [4]) was 400 nM. Also, the minimum inhibitory concentration (MIC) in assay [2] is 2 µg/mL.

In general, MIC refers to the lowest concentration that inhibits growth of the organism.
